From patent publication US20140024132A1, “METHODS AND SYSTEMS USING INTEGRATED METABOLOMICS AND PHARMACOKINETICS FOR MULTI-COMPONENT DRUG EVALUATION” (priority 2010, published 2014) come the findings set out here.

Series [1] relates to human metabolite endpoints. The series can be described thus: Urinary metabolomic response during 6-week study (24 h, 2 week daily Pu-erh tea intake, 2 week wash-out) vs pre-dose, OPLS-DA and S-plot. It counts as in vivo. The note with it: 2 week of Pu-erh tea daily intake vs pre-dose, human urine. Here is the method:
(§1) Volunteers were provided with identical standard meals three times per day during the experiment (e.g., breakfast: milk and bread; lunch: beef and vegetables; dinner: pork and cabbage). […] Urine samples were stored at −80° C. before analysis.

Series [2] deals with endogenous urinary metabolite profiles. The series can be described thus: Altered endogenous urinary metabolites after a single Pu-erh tea intake, UPLC-QTOFMS and GC-TOFMS profiling. It counts as in vivo. The note with it: human urine. Here is the method:
(§2) Participants received a dose equivalent to 5 cups of commercially prepared tea. Twenty healthy men (n=10) and women (n=10) whose mean age was 25±2 years (range 22-32) were enrolled in this study, and written consent was obtained from each participant.
as §1
(§3) The tea infusion used in this study and the collected urine samples were centrifuged at 13,000 rpm for 10 min at 4° C., and the resulting supernatants were immediately stored at −80° C. pending UPLC-QTOFMS analysis. Ultrapure water (500 μL) was added to the tea or urine sample (500 μL) and vortexed for 1 min. The sample was then filtered through a syringe filter (0.22 μm) for UPLC-QTOFMS analysis.; incorporated by reference herein in its entirety.
(§4) The tea infusion (100 μL) described in Example 2 and urine samples (100 μL) were spiked with two internal standard solutions (10 μL-2-chlorophenylalanine in water, 0.3 mg/ml; 10 μL heptadecanoic acid in methanol, 1 mg/mL), and vortexed for 10 seconds. The mixed solution was extracted with 300 μL of methanol:chloroform (v/v 3:1) and vortexed for 30 seconds. After storing for 10 min at −20° C., the samples were centrifuged at 10,000 rpm for 10 min. An aliquot of the 300 μL supernatant was transferred to a glass sampling vial to vacuum dry at room temperature. The residue was derivatized using a two-step procedure. First, 80 μL methoxyamine (15 mg/mL in pyridine,) was added to the vial and kept at 30° C. for 90 min followed by 80 μL BSTFA (1% TMCS) at 70° C. for 60 min. See protocols set forth in Ni et al., FEBS Lett. 581: 707-711 (2007).; incorporated by reference herein in its entirety.
(§5) UPLC: Tea and urine metabolite profiling were performed using a Waters ACQUITY UPLC system equipped with a binary solvent delivery manager and a sample manager (Waters Corporation, Milford, Mass., USA), coupled to a Micromass Q-TOF Premier mass spectrometry equipped with an electrospray interface (Waters Corporation, Milford, M A, USA). Chromatographic separations were performed on a 2.1×100 mm 1.7 μm ACQUITY BEH C18 chromatography column. The column was maintained at 45° C. and eluted with a 1-99% acetonitrile (0.1% (v/v) formic acid)-aqueous formic acid (0.1% (v/v) formic acid) gradient over 10 min at a flow rate of 0.40 mL/min. A 5 μL aliquot sample was injected onto the column.
(§6) Mass Spectrometry: The mass accuracy analysis and detailed MS parameters were optimized according to our prior studies, which is incorporated herein in its entirety. During metabolite profiling experiments, centroid data was acquired for each sample from 50 to 1000 Da with a 0.10 sec scan time and a 0.01 sec interscan delay over a 10 min analysis time. A metabonomics MS System Test Mixture including acetaminophen, tolbutamide, 3′-azido-3′-deoxythymidine, reserpine, verapamil and coumarin was used as chromatographic reference and mass accuracy quality control. This test mixture was injected every ten injections. The mass spectrometer was operated in positive ion mode. The desolvation temperature was set to 400° C. at a flow rate of 700 L/hr and source temperature of 100° C. The capillary and cone voltages were set to 3500 and 45 V, respectively. The data was collected between 50-1000 m/z with alternating collision energy, at 5 eV for precursor ion information generation and a collision profile from 10-40 eV for fragment ion information. The Q-TOF Premier™ was operated in v mode with 10,000 mass resolving power. Data were centroided during acquisition using independent reference lock-mass ions via the LockSpray™ interface to ensure mass accuracy and reproducibility. Leucine-enkephalin was used as the reference compound at a concentration of 50 pg/μL and an infusion flow rate of 0.05 mL/min.

Series [3] in a line: Urine levels of absorbed (bioavailable) Pu-erh tea components after a single Pu-erh tea intake, UPLC-QTOFMS and GC-TOFMS profiling. It counts as in vivo, human. The note with it: absorbed Pu-erh tea metabolite, human urine. On the procedure: as §2, §1, §3, §4, §5, §6
Series [4] in a line: Urine levels of biotransformed Pu-erh tea metabolites (produced in vivo) after a single Pu-erh tea intake, UPLC-QTOFMS and GC-TOFMS profiling. Also noted: species or system human. On the procedure: Approximately 1 kg of 5-year-old Pu-erh tea was mixed to produce a homogeneous sample, and then ground into a fine powder and filtered through a 20 mesh screen. The Pu-erh tea was prepared by infusing 10 g powder in 200 mL boiling water for 10 min, followed by straining. Participants received a dose equivalent to 5 cups of commercially prepared tea. Twenty healthy men (n=10) and women (n=10) whose mean age was 25±2 years (range 22-32) were enrolled in this study, and written consent was obtained from each participant.
Volunteers were provided with identical standard meals three times per day during the experiment (e.g., breakfast: milk and bread; lunch: beef and vegetables; dinner: pork and cabbage). Urine samples of 12 healthy men (n=6) and women (n=6) selected from the 20 participants were collected just before breakfast including the 200 mL Pu-erh tea and at 1 h, 3 h, 6 h, 9 h, 12 h, and 24 h thereafter. Spot urine samples of all 20 participants were collected daily between 11:00 and 11:30 a.m. during a 6-week period that included a 2-week baseline phase, a 2-week daily Pu-erh tea ingestion phase, and a 2-week post-dosing phase. […] Urine samples were stored at −80° C. before analysis.
as §3, §4, §5
Mass Spectrometry: The mass accuracy analysis and detailed MS parameters were optimized according to our prior studies, which is incorporated herein in its entirety. During metabolite profiling experiments, centroid data was acquired for each sample from 50 to 1000 Da with a 0.10 sec scan time and a 0.01 sec interscan delay over a 10 min analysis time. A metabonomics MS System Test Mixture including acetaminophen, tolbutamide, 3′-azido-3′-deoxythymidine, reserpine, verapamil and coumarin was used as chromatographic reference and mass accuracy quality control. This test mixture was injected every ten injections. The mass spectrometer was operated in positive ion mode. […]

[5] abbreviates: 1 h after Pu-erh tea intake vs pre-dose.
Where [6] appears, read: 3 h after Pu-erh tea intake vs pre-dose.
[7] abbreviates: 6 h after Pu-erh tea intake vs pre-dose.
The mark [8] stands for this setting: 9 h after Pu-erh tea intake vs pre-dose.
The mark [9] stands for this setting: 12 h after Pu-erh tea intake vs pre-dose.
[10] abbreviates: 24 h after Pu-erh tea intake vs pre-dose.

For the molecule 3-chlorotyrosine-2-aminobenzoic acid, the “change of urinary excretion / concentration” value in series [1] was “decreased”.
On the same count and under the same terms, next, `Oc1ccc2[nH]c(O)cc2c1` [2,5-dihydroxy-1H-indole]: “decreased”.
Regarding `COc1ccccc1O` [2-Methoxyphenol], the “FC (fold change)” value in series [2] (setting [5]) is listed as 0.48; in series [2] (setting [6]), 0.31; in series [2] (setting [7]), 0.31; in series [2] (setting [8]), 0.41; in series [2] (setting [9]) it was 0.59; in series [2] (setting [10]), 0.61.
For the molecule `O=C(O)c1cc(O)cc(O)c1` [3,5-hydroxy benzoic acid], the “FC (fold change)” value in series [3] (9 h post-dose vs pre-dose) turned out to be 0.42; in series [3] (12 h post-dose vs pre-dose), 0.47; in series [3] (24 h post-dose vs pre-dose) it was 0.20.
On to `NCCCC(=O)O` [4-Aminobutanoic acid], for which the “FC (fold change)” value in series [3] (1 h post-dose vs pre-dose) came out at 3.95; in series [3] (3 h post-dose vs pre-dose), 5.14; in series [3] (6 h post-dose vs pre-dose), 24.12; in series [3] (9 h post-dose vs pre-dose), 39.08; in series [3] (12 h post-dose vs pre-dose), 100.29; in series [3] (24 h post-dose vs pre-dose), 49.03. Moreover, the “FC (fold change)” value is reported as 3.95 in series [2] (setting [5]); 5.14 in series [2] (setting [6]); 24.12 in series [2] (setting [7]); 39.08 in series [2] (setting [8]); 100.29 in series [2] (setting [9]); 49.03 in series [2] (setting [10]).
Turning to `COc1cc(CC(=O)O)ccc1O` [4-Hydroxy-3-methoxyphenylacetic acid], the “FC (fold change)” value in series [2] (setting [5]) is reported as 0.39; in series [2] (setting [6]), 0.11; in series [2] (setting [7]), 0.27; in series [2] (setting [8]) it was 0.55; in series [2] (setting [9]), 0.85; in series [2] (setting [10]) it was 1.12.
In the case of `COc1ccc(CC(=O)O)cc1` [4-methoxyphenylacetic acid], in series [1], the “change of urinary excretion / concentration” value is listed as “increased”.
Regarding `Cc1cnc(C)c(O)c1C=O` [5-Deoxypyridoxal], the “FC (fold change)” value was found to be 2.56 in series [3] (1 h post-dose vs pre-dose); 3.69 in series [3] (3 h post-dose vs pre-dose); 3.68 in series [3] (6 h post-dose vs pre-dose); 2.35 in series [3] (9 h post-dose vs pre-dose); 0.91 in series [3] (12 h post-dose vs pre-dose); 0.81 in series [3] (24 h post-dose vs pre-dose).
As for `N[C@@H](Cc1c[nH]c2ccc(O)cc12)C(=O)O` [5-hydroxytryptophan], in series [1], the “change of urinary excretion / concentration” value is given as “increased”.
Consider `NC(C(=O)O)C(=O)O` [Aminomalonic acid], for which the “FC (fold change)” value in series [2] (setting [5]) was 1.90; in series [2] (setting [6]), 3.09; in series [2] (setting [7]), 3.09; in series [2] (setting [8]), 0.45; in series [2] (setting [9]), 0.57; in series [2] (setting [10]), 0.35.
Take `O=C(O)CC(O)(CC(=O)O)C(=O)O` [Citric acid]: the “FC (fold change)” value in series [3] (1 h post-dose vs pre-dose) is 1.42; in series [3] (3 h post-dose vs pre-dose) it was 1.76; in series [3] (6 h post-dose vs pre-dose) it was 1.59; in series [3] (9 h post-dose vs pre-dose), 1.20; in series [3] (12 h post-dose vs pre-dose), 1.42; in series [3] (24 h post-dose vs pre-dose), 1.17.
As to `CCN` [Ethylamine], the “FC (fold change)” value came out at 3.10 in series [4] (setting [6]); 3.87 in series [4] (setting [7]); 2.65 in series [4] (setting [8]); 3.09 in series [4] (setting [9]); 1.58 in series [4] (setting [10]); 1.73 in series [4] (l h after Pu-erh tea intake vs pre-dose).
As to `NCC(=O)O` [Glycine], the “FC (fold change)” value in series [3] (1 h post-dose vs pre-dose) is 1.28; in series [3] (3 h post-dose vs pre-dose), 1.67; in series [3] (6 h post-dose vs pre-dose), 2.32; in series [3] (9 h post-dose vs pre-dose), 1.53; in series [3] (12 h post-dose vs pre-dose), 1.77; in series [3] (24 h post-dose vs pre-dose), 1.04.
Regarding `O=C(O)c1cccnc1` [Nicotinic acid], the “FC (fold change)” value is on record as 14.31 in series [3] (1 h post-dose vs pre-dose); 62.95 in series [3] (3 h post-dose vs pre-dose); 78.98 in series [3] (6 h post-dose vs pre-dose); 63.95 in series [3] (9 h post-dose vs pre-dose); 49.02 in series [3] (12 h post-dose vs pre-dose); 27.31 in series [3] (24 h post-dose vs pre-dose).
On to `Oc1ccccc1` [Phenol], for which the “FC (fold change)” value in series [2] (setting [5]) is recorded as 1.04; in series [2] (setting [6]) it was 1.22; in series [2] (setting [7]) it was 1.43; in series [2] (setting [8]), 1.14; in series [2] (setting [9]) it was 1.32; in series [2] (setting [10]), 2.22.
As for `O=C(O)CCC(=O)O` [Succinate], the “FC (fold change)” value in series [3] (1 h post-dose vs pre-dose) is on record as 1.15; in series [3] (3 h post-dose vs pre-dose), 0.90; in series [3] (6 h post-dose vs pre-dose), 0.74; in series [3] (9 h post-dose vs pre-dose), 0.57; in series [3] (12 h post-dose vs pre-dose), 0.84; in series [3] (24 h post-dose vs pre-dose) it was 0.93.
As to `Cn1cnc2c1c(=O)[nH]c(=O)n2C` [Theobromine], the “FC (fold change)” value in series [3] (1 h post-dose vs pre-dose) turned out to be 4.04; in series [3] (3 h post-dose vs pre-dose), 6.76; in series [3] (6 h post-dose vs pre-dose), 7.75; in series [3] (9 h post-dose vs pre-dose), 5.42; in series [3] (12 h post-dose vs pre-dose), 4.43; in series [3] (24 h post-dose vs pre-dose), 2.67.
In the case of `Cn1c(=O)c2[nH]cnc2n(C)c1=O` [Theophylline], the “FC (fold change)” value in series [3] (1 h post-dose vs pre-dose) came to 11.62; in series [3] (3 h post-dose vs pre-dose), 42.69; in series [3] (6 h post-dose vs pre-dose), 54.55; in series [3] (9 h post-dose vs pre-dose), 45.99; in series [3] (12 h post-dose vs pre-dose) it was 38.67; in series [3] (24 h post-dose vs pre-dose), 19.22.
Regarding `CC(C)[C@H](N)C(=O)O` [Valine], the “FC (fold change)” value in series [2] (setting [5]) is on record as 2.58; in series [2] (setting [6]) it was 1.25; in series [2] (setting [7]) it was 2.16; in series [2] (setting [8]) it was 2.32; in series [2] (setting [9]) it was 2.76; in series [2] (setting [10]), 1.38.
Turning to `O[C@H]1[C@H](O)[C@@H](O)[C@H](O)[C@@H](O)[C@H]1O` [inositol], the “change of urinary excretion / concentration” value in series [1] is recorded as “increased”.
